According to patent publication US20240327415A1, “Multicomponent Complexes, Including Salts, Crystalline Forms, and Hydrates and Solvates of ENT1 Inhibitors” (iTeos Belgium SA, priority 2023, published 2024):

Columns and labels:
Assay type in all cases: physicochemical
[1] = salt screen, XRPD of damp, dried and 40° C./75% RH stored samples (Salt Preparation Methods 1 and 2); parameters: key to XRPD Analysis Damp/Dry: A = amorphous; Evap. = isolated via evaporation; details: (evap.)
Protocol: (§1) Salt Preparation Method 1: Approximately 25 mg of Compound 1 (free base) was weighed out into 1.5 mL screw-cap vials and a stirrer bar was added. For solid counterions, the appropriate amount of acid (1.0 or 2.0 equiv.) was weighed into separate 1.5 mL screw-cap vials. 100 μL of the appropriate solvent system was added to both the Compound 1 and the solid counterions. Stock solutions of liquid counterions were prepared, such that 100 μL contained 1.0 or 2.0 equiv. of acid. See counterion and solvent lists in Table 60 and Table 61 respectively.
(§2) The samples were stirred at 40° C. for 5-10 min and then the acid solutions were added to Compound 1, rinsing out the transfer vial with a further 50 μL of solvent. […] Experiments were temperature cycled between 40° C. and 5° C. (1 h hold; 0.1° C./min ramp/cool) for ca. 24-68 h. Anti-solvent addition (ASA) was carried out to slurries at 5° C. then experiments were heated to 30° C. over 1 h. ASA was carried out at 30° C. or 40° C. where clear solutions or gums were observed.
(§3) Temperature cycling was then continued for ca. 16-69 h, followed by further ASA and temperature cycling if required. Material was isolated at 5° C. and analyzed damp by XRPD. All isolated material was dried under vacuum at ca. 40° C. for ca. 17-91 h then re-analyzed by XRPD. The XRPD plate was stored at 40° C./75% RH for 24-48 h and then samples re-analyzed. Solutions were stored uncapped at ambient temperature to evaporate. Any residual solids were analyzed by XRPD.
(§4) Salt Preparation Method 2: The general procedure adopted in preparing the potential salts is outlined below. A known mass of Compound 1 (free base) and a known volume of the appropriate solvent system were added to 20 mL scintillation vials. The required mol. equiv. of the appropriate counterions were added to the vials as solutions or slurries in the corresponding solvent system.
(§5) The experiments were stirred at 40° C. for ca. 1 h, and then temperature cycled between 40° C. and 5° C. with 0.1° C./min ramp and 1 h hold between each step. Anti-solvent additions and subsequent slurrying at 5° C. were employed in order to facilitate crystallization. […] The damp and dried solids were subsampled and analyzed by XRPD. Where applicable, the dried solids were stored at 40° C./75% RH for 24-48 h in order to improve the crystallinity and/or facilitate solid form conversion to the desired form.

[2] = as above; parameters: key: A = amorphous; Evap. = isolated via evaporation
Protocol: as §1, §2, §3, §4, §5

[3] = Variable Humidity X-Ray Powder Diffraction (VH-XRPD); details: Form 3: after extended exposure
Protocol: (§6) In the examples below, VH-XRPD analysis was carried out on a Philips X'Pert Pro Multipurpose diffractometer equipped with a humidity chamber. The samples were scanned between 4 and 36° 2θ using Cu K radiation (α1λ=1.54060 Å; α2=1.54443 Å; β=1.39225 Å; α1: α2 ratio=0.5; most, if not all, B radiation is removed from the beam using an X-ray mirror) running in Bragg-Brentano geometry (step size 0.008° 2θ) using 40 kV/40 mA generator settings. Measurements were carried out from 2-90% RH, with a final measurement taken at 40% RH.
as §6, with “VH-XRPD” for “In the examples below, VH-XRPD”, “radiation (α1 λ=1.54060” for “radiation (α1λ=1.54060”, “Å; α1:α2” for “Å; α1: α2”, “all, β” for “all, B”, “from 6-90% relative humidity (RH),” for “from 2-90% RH,”

[4] = Methanesulfonic acid, 2 equiv., IPA:H2O (75:25% v/v), AS tBME
[5] = Methanesulfonic acid, 2 equiv., Acetonitrile, AS tBME
[6] = Methanesulfonic acid, 2 equiv., Ethanol, AS Heptane
[7] = Methanesulfonic acid, 2 equiv., Ethyl acetate, AS Heptane
[8] = Methanesulfonic acid, 2 equiv., MEK, AS Heptane
[9] = Methanesulfonic acid, 2 equiv., THF, AS Heptane
[10] = p-Toluenesulfonic acid, 1 equiv., Ethanol, AS Heptane
[11] = p-Toluenesulfonic acid, 1 equiv., IPA:H2O (75:25% v/v), AS tBME
[12] = p-Toluenesulfonic acid, 1 equiv., Acetonitrile, AS tBME
[13] = p-Toluenesulfonic acid, 1 equiv., Ethyl acetate, AS Heptane
[14] = p-Toluenesulfonic acid, 1 equiv., MEK, AS Heptane
[15] = p-Toluenesulfonic acid, 1 equiv., THF, AS Heptane
[16] = p-Toluenesulfonic acid, 2 equiv., IPA:H2O (75:25% v/v), AS tBME
[17] = p-Toluenesulfonic acid, 2 equiv., Acetonitrile, AS tBME
[18] = p-Toluenesulfonic acid, 2 equiv., Ethanol, AS Heptane
[19] = p-Toluenesulfonic acid, 2 equiv., Ethyl acetate, AS Heptane
[20] = p-Toluenesulfonic acid, 2 equiv., MEK, AS Heptane
[21] = p-Toluenesulfonic acid, 2 equiv., THF, AS Heptane

CS(=O)(=O)O [Methanesulfonic acid, 2 equiv.]
A (evap.): XRPD Analysis Damp/Dry [1, 4]
A: XRPD Analysis 40° C. 75% RH [2, 5] | XRPD Analysis Damp [2, 5] | XRPD Analysis Dry [2, 5] | XRPD Analysis 40° C. 75% RH [2, 6] | XRPD Analysis Damp [2, 6] | XRPD Analysis Dry [2, 6] | XRPD Analysis 40° C. 75% RH [2, 7] | XRPD Analysis Damp [2, 7] | XRPD Analysis Dry [2, 7] | XRPD Analysis 40° C. 75% RH [2, 4] | XRPD Analysis 40° C. 75% RH [2, 8] | XRPD Analysis Damp [2, 8] | XRPD Analysis Dry [2, 8] | XRPD Analysis 40° C. 75% RH [2, 9] | XRPD Analysis Damp [2, 9] | XRPD Analysis Dry [2, 9]

COc1cc(C(=O)O[C@@H]2CCCOc3cc(cc(OC)c3OC)C(=O)NCCCN3CCCN(CC2)CC3)cc(OC)c1OC.O=S(=O)(O)O.O=S(=O)(O)O [crystalline Form 5 Compound 1 di(hydrogen sulfate)]
≥ 10 % RH: relative humidity at which conversion to crystalline Form 2 Compound 1 di(hydrogen sulfate) trihydrate is observed [3]

Cc1ccc(S(=O)(=O)O)cc1 [p-Toluenesulfonic acid, 1 equiv.]
A (evap.): XRPD Analysis Damp/Dry [1, 10] | XRPD Analysis Damp/Dry [1, 11]
A: XRPD Analysis 40° C. 75% RH [2, 12] | XRPD Analysis Damp [2, 12] | XRPD Analysis Dry [2, 12] | XRPD Analysis 40° C. 75% RH [2, 10] | XRPD Analysis 40° C. 75% RH [2, 13] | XRPD Analysis Damp [2, 13] | XRPD Analysis Dry [2, 13] | XRPD Analysis 40° C. 75% RH [2, 11] | XRPD Analysis 40° C. 75% RH [2, 14] | XRPD Analysis Damp [2, 14] | XRPD Analysis Dry [2, 14] | XRPD Analysis 40° C. 75% RH [2, 15] | XRPD Analysis Damp [2, 15] | XRPD Analysis Dry [2, 15]

Cc1ccc(S(=O)(=O)O)cc1 [p-Toluenesulfonic acid, 2 equiv.]
A (evap.): XRPD Analysis Damp/Dry [1, 16]
A: XRPD Analysis 40° C. 75% RH [2, 17] | XRPD Analysis Damp [2, 17] | XRPD Analysis Dry [2, 17] | XRPD Analysis 40° C. 75% RH [2, 18] | XRPD Analysis Damp [2, 18] | XRPD Analysis Dry [2, 18] | XRPD Analysis 40° C. 75% RH [2, 19] | XRPD Analysis Damp [2, 19] | XRPD Analysis Dry [2, 19] | XRPD Analysis 40° C. 75% RH [2, 16] | XRPD Analysis 40° C. 75% RH [2, 20] | XRPD Analysis Damp [2, 20] | XRPD Analysis Dry [2, 20] | XRPD Analysis 40° C. 75% RH [2, 21] | XRPD Analysis Damp [2, 21] | XRPD Analysis Dry [2, 21]
